AC50 data for nine molecules are collected here from ChEMBL document CHEMBL5291721, “A preclinical secondary pharmacology resource illuminates target-adverse drug reaction associations of marketed drugs” (Nat Commun, 2023).

Assay [1] concerns the target T1, Alpha-1A adrenergic receptor (Homo sapiens, UniProt P35348).
T1 sequence (P35348 whole entry): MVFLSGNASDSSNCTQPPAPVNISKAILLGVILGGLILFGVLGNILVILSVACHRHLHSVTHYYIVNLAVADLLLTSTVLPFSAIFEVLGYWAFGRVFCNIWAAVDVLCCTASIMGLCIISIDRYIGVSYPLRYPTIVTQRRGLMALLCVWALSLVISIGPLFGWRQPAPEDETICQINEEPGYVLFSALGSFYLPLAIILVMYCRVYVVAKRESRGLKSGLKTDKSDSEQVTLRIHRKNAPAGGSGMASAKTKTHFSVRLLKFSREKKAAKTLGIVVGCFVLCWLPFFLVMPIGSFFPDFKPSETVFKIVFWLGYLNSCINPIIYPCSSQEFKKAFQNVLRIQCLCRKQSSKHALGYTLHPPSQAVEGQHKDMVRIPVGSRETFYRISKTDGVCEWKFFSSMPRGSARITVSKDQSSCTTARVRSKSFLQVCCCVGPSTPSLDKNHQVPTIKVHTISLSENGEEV

Assay [2] deals with T2, Alpha-2B adrenergic receptor (Homo sapiens, UniProt P18089).
T2 sequence (P18089 whole entry): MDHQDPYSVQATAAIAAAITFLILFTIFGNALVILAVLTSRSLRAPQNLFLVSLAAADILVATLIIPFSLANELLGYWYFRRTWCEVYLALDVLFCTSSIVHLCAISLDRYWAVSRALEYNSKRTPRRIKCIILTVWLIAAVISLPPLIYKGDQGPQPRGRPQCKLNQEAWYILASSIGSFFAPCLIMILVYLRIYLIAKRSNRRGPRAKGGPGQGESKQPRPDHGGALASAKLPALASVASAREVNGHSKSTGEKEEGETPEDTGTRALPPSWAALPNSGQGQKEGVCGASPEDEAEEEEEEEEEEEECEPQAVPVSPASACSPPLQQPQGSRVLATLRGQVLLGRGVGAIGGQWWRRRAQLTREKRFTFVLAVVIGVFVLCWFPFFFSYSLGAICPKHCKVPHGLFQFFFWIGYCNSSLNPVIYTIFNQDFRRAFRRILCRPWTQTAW

For assay [3], the target named is 5-hydroxytryptamine receptor 2A (Homo sapiens, UniProt P28223). Format: functional, cell-based.
5-hydroxytryptamine receptor 2A, sequence (P28223 whole entry): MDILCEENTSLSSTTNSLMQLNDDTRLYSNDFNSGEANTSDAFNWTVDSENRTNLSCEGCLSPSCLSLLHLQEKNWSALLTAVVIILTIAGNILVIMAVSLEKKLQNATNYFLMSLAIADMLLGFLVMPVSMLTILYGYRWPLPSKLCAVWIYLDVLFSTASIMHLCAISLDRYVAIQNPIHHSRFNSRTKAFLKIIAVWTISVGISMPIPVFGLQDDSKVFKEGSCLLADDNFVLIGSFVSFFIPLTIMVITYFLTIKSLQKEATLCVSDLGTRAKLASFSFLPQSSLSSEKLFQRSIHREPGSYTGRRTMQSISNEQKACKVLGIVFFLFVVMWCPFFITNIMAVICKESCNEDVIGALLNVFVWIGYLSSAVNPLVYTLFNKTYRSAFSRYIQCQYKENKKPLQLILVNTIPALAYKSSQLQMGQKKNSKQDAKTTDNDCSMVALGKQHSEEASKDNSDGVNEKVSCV
Assay [4] has as its target 5-hydroxytryptamine receptor 2B (Homo sapiens, UniProt P41595). Format: functional, cell-based.
The next assay addresses T3, Glucocorticoid receptor (Homo sapiens, UniProt P04150).
T3 sequence (P04150 whole entry): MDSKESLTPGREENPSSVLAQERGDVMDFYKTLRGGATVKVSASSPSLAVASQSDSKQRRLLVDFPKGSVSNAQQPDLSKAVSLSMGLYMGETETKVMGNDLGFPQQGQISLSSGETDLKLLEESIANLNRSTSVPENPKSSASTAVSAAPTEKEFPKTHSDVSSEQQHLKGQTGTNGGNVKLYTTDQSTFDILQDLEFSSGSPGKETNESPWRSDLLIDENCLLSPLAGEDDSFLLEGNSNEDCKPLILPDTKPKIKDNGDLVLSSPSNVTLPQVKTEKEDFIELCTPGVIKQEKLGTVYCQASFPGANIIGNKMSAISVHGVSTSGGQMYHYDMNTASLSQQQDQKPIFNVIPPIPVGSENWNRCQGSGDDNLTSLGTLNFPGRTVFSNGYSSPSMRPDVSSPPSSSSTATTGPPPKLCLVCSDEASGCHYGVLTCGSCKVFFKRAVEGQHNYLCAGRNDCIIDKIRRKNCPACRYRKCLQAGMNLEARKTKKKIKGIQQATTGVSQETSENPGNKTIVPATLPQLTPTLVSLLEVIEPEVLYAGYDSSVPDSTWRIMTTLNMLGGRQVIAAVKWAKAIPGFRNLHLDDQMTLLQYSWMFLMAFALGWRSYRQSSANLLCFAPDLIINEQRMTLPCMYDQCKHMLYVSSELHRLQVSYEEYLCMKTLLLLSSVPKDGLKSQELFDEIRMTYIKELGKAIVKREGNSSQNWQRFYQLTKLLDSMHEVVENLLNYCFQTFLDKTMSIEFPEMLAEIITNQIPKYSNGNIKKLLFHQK

Assay [5] has as its target T4, Gastrin/cholecystokinin type B receptor (Homo sapiens, UniProt P32239).
T4 sequence (P32239 whole entry): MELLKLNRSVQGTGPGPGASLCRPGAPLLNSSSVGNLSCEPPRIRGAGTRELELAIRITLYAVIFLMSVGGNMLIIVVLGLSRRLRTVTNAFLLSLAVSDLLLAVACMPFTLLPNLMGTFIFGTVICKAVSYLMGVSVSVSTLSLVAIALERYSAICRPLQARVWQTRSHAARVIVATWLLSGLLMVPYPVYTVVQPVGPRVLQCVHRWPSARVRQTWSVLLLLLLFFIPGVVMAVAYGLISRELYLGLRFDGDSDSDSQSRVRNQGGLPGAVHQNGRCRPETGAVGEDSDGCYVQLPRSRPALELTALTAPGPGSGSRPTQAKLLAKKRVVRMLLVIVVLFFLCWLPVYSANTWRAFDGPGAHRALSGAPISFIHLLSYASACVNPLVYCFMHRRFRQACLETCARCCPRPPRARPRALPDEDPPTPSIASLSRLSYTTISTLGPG

Assay [6] has as its target T5, Alpha-2A adrenergic receptor (Homo sapiens, UniProt P08913).
T5 sequence (P08913 whole entry): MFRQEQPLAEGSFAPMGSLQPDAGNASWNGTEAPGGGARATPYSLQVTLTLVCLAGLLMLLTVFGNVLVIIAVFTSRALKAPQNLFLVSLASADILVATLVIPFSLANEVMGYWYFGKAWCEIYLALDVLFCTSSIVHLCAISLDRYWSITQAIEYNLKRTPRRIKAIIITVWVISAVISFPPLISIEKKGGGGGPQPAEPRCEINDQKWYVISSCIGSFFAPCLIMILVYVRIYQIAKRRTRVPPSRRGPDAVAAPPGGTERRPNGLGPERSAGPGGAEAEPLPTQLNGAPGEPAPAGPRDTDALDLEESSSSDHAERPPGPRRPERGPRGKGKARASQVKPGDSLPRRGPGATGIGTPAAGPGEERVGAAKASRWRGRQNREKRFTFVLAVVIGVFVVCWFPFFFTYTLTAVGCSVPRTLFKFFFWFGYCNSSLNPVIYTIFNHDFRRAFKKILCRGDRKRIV

The target in the next assay is Histamine H3 receptor (Homo sapiens, UniProt Q9Y5N1).
Histamine H3 receptor, sequence (Q9Y5N1 whole entry): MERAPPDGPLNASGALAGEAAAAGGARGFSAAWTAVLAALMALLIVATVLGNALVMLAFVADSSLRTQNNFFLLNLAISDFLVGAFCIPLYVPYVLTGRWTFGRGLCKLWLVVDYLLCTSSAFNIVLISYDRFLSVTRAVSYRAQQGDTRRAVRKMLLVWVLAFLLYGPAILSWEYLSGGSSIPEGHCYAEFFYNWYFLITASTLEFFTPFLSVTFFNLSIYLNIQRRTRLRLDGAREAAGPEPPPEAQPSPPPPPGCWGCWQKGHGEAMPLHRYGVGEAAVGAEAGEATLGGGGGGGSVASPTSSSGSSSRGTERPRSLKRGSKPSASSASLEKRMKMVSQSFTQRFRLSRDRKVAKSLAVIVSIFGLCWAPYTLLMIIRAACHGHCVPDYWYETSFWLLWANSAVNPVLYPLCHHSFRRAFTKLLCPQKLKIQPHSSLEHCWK
Assay [7] deals with cGMP-inhibited 3',5'-cyclic phosphodiesterase 3A (Homo sapiens, UniProt Q14432). Format: functional.
cGMP-inhibited 3',5'-cyclic phosphodiesterase 3A, sequence (Q14432 whole entry): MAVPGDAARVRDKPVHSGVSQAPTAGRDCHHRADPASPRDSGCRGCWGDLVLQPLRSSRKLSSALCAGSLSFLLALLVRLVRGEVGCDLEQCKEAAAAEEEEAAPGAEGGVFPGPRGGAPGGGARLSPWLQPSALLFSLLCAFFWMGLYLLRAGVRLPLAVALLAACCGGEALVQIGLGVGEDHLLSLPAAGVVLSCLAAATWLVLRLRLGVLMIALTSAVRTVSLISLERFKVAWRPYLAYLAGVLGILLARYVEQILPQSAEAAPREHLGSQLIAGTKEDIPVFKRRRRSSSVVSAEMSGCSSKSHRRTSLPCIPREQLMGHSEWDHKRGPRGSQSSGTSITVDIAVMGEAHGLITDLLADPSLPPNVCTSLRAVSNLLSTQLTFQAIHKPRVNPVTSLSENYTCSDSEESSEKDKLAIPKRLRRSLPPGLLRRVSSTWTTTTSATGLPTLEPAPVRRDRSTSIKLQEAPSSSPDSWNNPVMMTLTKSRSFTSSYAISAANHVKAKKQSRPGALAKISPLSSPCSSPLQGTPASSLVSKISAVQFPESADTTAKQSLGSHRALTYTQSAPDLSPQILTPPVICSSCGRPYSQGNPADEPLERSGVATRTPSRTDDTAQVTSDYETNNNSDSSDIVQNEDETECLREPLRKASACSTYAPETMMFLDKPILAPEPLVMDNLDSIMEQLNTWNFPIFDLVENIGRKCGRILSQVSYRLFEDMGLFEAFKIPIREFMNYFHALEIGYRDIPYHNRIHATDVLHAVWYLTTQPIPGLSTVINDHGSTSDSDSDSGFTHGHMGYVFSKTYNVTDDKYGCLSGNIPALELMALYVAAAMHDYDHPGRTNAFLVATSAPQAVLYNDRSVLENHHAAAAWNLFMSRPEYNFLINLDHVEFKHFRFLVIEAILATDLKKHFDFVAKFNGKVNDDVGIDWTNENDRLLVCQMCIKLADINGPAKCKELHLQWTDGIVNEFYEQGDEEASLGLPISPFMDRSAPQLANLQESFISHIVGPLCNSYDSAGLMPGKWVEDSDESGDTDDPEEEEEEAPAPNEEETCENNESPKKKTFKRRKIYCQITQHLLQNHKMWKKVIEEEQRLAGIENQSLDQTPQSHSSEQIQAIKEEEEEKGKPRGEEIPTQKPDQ
The target of assay [8] is Sodium-dependent dopamine transporter (Homo sapiens, UniProt Q01959).
Sodium-dependent dopamine transporter, sequence (Q01959 whole entry): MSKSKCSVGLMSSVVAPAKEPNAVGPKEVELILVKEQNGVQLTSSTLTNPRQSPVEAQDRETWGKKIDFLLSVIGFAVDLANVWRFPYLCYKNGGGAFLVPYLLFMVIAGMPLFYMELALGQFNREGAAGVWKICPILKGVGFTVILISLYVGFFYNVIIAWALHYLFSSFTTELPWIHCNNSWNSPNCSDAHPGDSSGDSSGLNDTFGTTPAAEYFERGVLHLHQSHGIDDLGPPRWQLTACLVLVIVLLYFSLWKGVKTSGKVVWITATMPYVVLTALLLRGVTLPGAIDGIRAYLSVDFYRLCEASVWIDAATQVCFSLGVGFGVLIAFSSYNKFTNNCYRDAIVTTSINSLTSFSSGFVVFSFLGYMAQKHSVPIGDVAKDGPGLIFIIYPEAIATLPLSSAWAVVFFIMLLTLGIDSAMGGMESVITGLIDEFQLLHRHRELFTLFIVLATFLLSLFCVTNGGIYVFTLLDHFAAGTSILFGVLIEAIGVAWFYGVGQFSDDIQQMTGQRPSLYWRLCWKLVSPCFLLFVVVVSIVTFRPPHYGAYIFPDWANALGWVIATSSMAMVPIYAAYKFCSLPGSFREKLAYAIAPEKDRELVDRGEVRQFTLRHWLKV

A value given as a limit tells only on which side of the number the result lay.

For orientation: AC50 means the concentration at which the activity in the assay is half-maximal. A higher AC50 goes with weaker potency.
Further: assay procedure not described here.

5-hydroxytryptamine receptor 2B, sequence (P41595 whole entry): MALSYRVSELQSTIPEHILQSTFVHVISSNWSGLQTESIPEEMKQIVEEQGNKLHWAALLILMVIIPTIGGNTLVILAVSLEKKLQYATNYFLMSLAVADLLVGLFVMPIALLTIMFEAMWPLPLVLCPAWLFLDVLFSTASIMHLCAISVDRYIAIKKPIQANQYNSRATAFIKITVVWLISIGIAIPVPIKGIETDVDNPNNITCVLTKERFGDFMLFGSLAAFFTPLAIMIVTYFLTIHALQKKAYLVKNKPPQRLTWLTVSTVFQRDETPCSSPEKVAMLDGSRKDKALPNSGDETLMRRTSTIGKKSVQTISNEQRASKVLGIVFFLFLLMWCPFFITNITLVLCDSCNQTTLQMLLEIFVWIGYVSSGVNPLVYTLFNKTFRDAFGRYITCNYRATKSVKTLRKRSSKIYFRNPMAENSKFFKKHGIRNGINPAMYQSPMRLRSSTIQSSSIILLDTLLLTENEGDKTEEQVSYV

Consider `CN1C(=O)CCS(=O)(=O)C1c1ccc(Cl)cc1` (stereo unspecified) [CHLORMEZANONE], for which the half-maximal activity concentration (AC50) in assay [1] is greater than 30 µM; in assay [2] it was greater than 10 µM; in assay [3] it was greater than 10 µM; in [4], greater than 10 µM; at Glucocorticoid receptor, greater than 10 µM.

Take `O=C1Nc2ccc(Cl)cc2[C@@](C#CC2CC2)(C(F)(F)F)O1` [EFAVIRENZ]: the AC50 in assay [1] is greater than 10 µM; in assay [2] it was greater than 30 µM; in [5], 45 µM; in assay [3], greater than 30 µM; in [4], greater than 10 µM; on Glucocorticoid receptor it was 2.71 µM.

Regarding `CN1C(C(=O)Nc2ccccn2)=C(O)c2sc(Cl)cc2S1(=O)=O` [LORNOXICAM], the AC50 in [1] was greater than 10 µM; in assay [2], greater than 10 µM; in [5], greater than 30 µM; in assay [3] it was greater than 30 µM; in assay [4] it was greater than 10 µM.

`CC1(C)NC(=O)N(c2ccc([N+](=O)[O-])c(C(F)(F)F)c2)C1=O` [NILUTAMIDE]: the AC50 (in assay [1]; in [6]; in [2]; in assay [5]; on Histamine H3 receptor; in [3]) was greater than 30 µM each time. For the same molecule, the AC50 in assay [4], in [7] and in [8] was greater than 30 µM each time.

As to `COc1ccccc1OCC(O)CN1CCN(CC(=O)Nc2c(C)cccc2C)CC1` (stereo unspecified) [RANOLAZINE], the concentration at half-maximal activity (AC50) was 13 µM in assay [1]; 17 µM in assay [2]; greater than 30 µM in assay [5]; greater than 30 µM in [3]; 11 µM in assay [4]; greater than 30 µM on Glucocorticoid receptor.

`Cc1c(C(=O)NN2CCCCC2)nn(-c2ccc(Cl)cc2Cl)c1-c1ccc(Cl)cc1` [RIMONABANT]: the AC50 was greater than 10 µM in [1]; 23 µM in [2]; 29.6 µM in assay [5]; greater than 30 µM in [3]; 14 µM in assay [4]; greater than 30 µM on Glucocorticoid receptor.

Consider `Cn1nnc2c(C(N)=O)ncn2c1=O` [TEMOZOLOMIDE], for which the AC50 in assay [1] is greater than 10 µM; in assay [2] it was greater than 30 µM; in [5], greater than 30 µM; in [3], greater than 30 µM; in assay [4], greater than 30 µM.

Regarding `Nc1ccn([C@H]2CC[C@@H](CO)O2)c(=O)n1` [ZALCITABINE], the AC50 is greater than 10 µM in [1], greater than 30 µM in assay [2], greater than 30 µM in [3] and greater than 10 µM in assay [4].

As to `NS(=O)(=O)Cc1noc2ccccc12` [ZONISAMIDE], the AC50 (in assay [1]; in assay [2]; in assay [3]; in assay [4]; on Glucocorticoid receptor) was greater than 10 µM in each case.
